Values joined by “and” are separate entries in the source; they are usually repeats but may differ in a detail not shown here. Equal values may be shown once.
Assays:
[1] = test system: DLCL-2; assay: Viability assay of liquid tumor cell lines (MTS); assay type: cell-based; conditions: DLCL-2 (B-NHL), N = 4
Method: (§1) This method is to determine the viability of a liquid tumor cell line following treatment with a test compound. Tumor cells are maintained in suspension at log phase growth. On the day of use, cells are resuspended to a density of 0.05 to 0.1 million/ml and cells are incubated in 96 well plate with the test compounds for 96 hours. Viability of cells was measured by incubating cells with Promega's MTS reagent. The viability of the cell is proportional to the change in absorbance at 490 nm. By comparing the absorbance between control and compound-treated cells, the impact of the test compounds on the cell viability is determined as a percent of the control cell viability.
(§2) Harvest cells in complete RPMI from log-phase cultures at densities of approximately 0.3-0.7 million/ml. Count cells and adjust to 0.1 million/ml in phenol red free cRPMI (For fast growing cells with doubling time of equal or less than 24 hours, e.g. K562, use 0.05 million/ml instead to avoid over-growing).
(§3) Transfer triplicates of 100 μl of cells to the wells of 96-well clear plates for a total of 10000 cells/well. Note that each well already contains 10 μl of 10× concentrated test compound prepared as above.
(§4) Incubate cells for 72-96 hours at 37° C. in a tissue culture incubator containing 5% CO2.
(§5) 1. Thaw the Promega's MTS reagent and add 20 ul to each well with a repeat pipetor.
(§6) 4. Incubate at 370 C until the absorbance at 490 nm for the control cells is >1.5.
(§7) 5. Calculate the averaged compound-treated cell data as a percent of the averaged control cell data as follows: (Compound-treated value/control value)*100=% of control value Results: […]

[2] = test system: DOHH-2; assay: Viability assay of liquid tumor cell lines (MTS); assay type: cell-based; conditions: DOHH-2 (B-NHL), N = 4
Method: as §1, §2, §3, §4, §5, §6, §7

[3] = test system: Granta-519; assay: Viability assay of liquid tumor cell lines (MTS); assay type: cell-based; conditions: Granta-519 (MCL), N = 4
Method: as §1, §2, §3, §4, §5, §6, §7

[4] = test system: HL-60; assay: Viability assay of liquid tumor cell lines (MTS); assay type: cell-based; conditions: HL-60 (AML), N = 4
Method: as §1, §2, §3, §4, §5, §6, §7

[5] = test system: JVM-2; assay: Viability assay of liquid tumor cell lines (MTS); assay type: cell-based; conditions: JVM-2 (B-CLL), N = 4, listed as A003397769, 10 µM
Method: as §1, §2, §3, §4, §5, §6, §7

[6] = test system: Jeko-1; assay: Viability assay of liquid tumor cell lines (MTS); assay type: cell-based; conditions: Jeko-1 (MCL), N = 4
Method: as §1, §2, §3, §4, §5, §6, §7

[7] = test system: Jurkat; assay: Viability assay of liquid tumor cell lines (MTS); assay type: cell-based; conditions: Jurkat (T-ALL), N = 4; for IC50: MTS assay
Method: as §1, §2, §3, §4, §5, §6, §7

[8] = test system: Jurl-MK1; assay: Viability assay of liquid tumor cell lines (MTS); assay type: cell-based; conditions: Jurl-MK1 (CML), N = 4
Method: as §1, §2, §3, §4, §5, §6, §7

[9] = test system: K562; assay: Viability assay of liquid tumor cell lines (MTS); assay type: cell-based; conditions: K562 (CML), N = 4
Method: as §1, §2, §3, §4, §5, §6, §7

[10] = test system: KG-1; assay: Viability assay of liquid tumor cell lines (MTS); assay type: cell-based; conditions: KG-1 (AML), N = 4
Method: as §1, §2, §3, §4, §5, §6, §7

[11] = test system: L-363; assay: Viability assay of liquid tumor cell lines (MTS); assay type: cell-based; conditions: L-363 (MM), N = 4
Method: as §1, §2, §3, §4, §5, §6, §7

[12] = test system: ML-2; assay: Viability assay of liquid tumor cell lines (MTS); assay type: cell-based; conditions: ML-2 (AML), N = 4
Method: as §1, §2, §3, §4, §5, §6, §7

[13] = test system: Nalm-6; assay: Viability assay of liquid tumor cell lines (MTS); assay type: cell-based; conditions: Nalm-6 (B-ALL), N = 4
Method: as §1, §2, §3, §4, §5, §6, §7

[14] = test system: RPMI8226; assay: Viability assay of liquid tumor cell lines (MTS); assay type: cell-based; conditions: RPMI8226 (MM), N = 4
Method: as §1, §2, §3, §4, §5, §6, §7

[15] = test system: Collagen-induced arthritis (CIA); assay: Rat collagen induced arthritis, prophylactic dosing; assay type: in vivo; conditions: vs vehicle
Method: Immunization and Challenge: Female Lewis rats were immunized on day 0 and challenged on day 7 with cII from bovine nasal mixed with Freund's incomplete adjuvant at a final collagen concentration of 1.0 mg/ml. The animals were injected at the base of the tail with 400 μg of cII.
Prophylactic Dosing Regimen: The compound of Formula I (3.0, 10, and 30 mg/kg) was orally dosed (p.o.) twice daily (b.i.d.) starting on day 6 and continued through day 21.
Joint Pathology Ankle joint swelling was measured to the nearest 0.01 mm by using electronic digital calipers. Measurements were recorded 7 times throughout the study starting on day 6 and ending on day 21. Body weights were recorded on the same days. On day 21, hind paws were removed at the hairline just above the ankle and fixed in 10% neutral buffered formalin.
MicroCT analysis: Ankle joints were examined using a cone-beam μCT scanner. A scout view scan was obtained first for selection of the examination volume of the specimens, followed by positioning, measurement and computational reconstruction. In ankle joints, the ratio of bone surface to bone volume, describing the complexity of bone surface in a certain volume, was analyzed.
Statistical Analysis For joint swelling/inflammation, data were analyzed using Everstat v.5 software and a 2-way repeated measure ANOVA with Dunnett's post test. MicroCT data were analyzed by Everstat using a 1-way ANOVA and Newman-Keuls multiple comparison test. Data are presented as the mean±SEM and p values of <0.05 are considered significant.

Compound: CCc1c(-c2ccc(C(C)(C)O)cc2)[nH]c2nccnc12 [compound of Formula I, 2-[4-(7-Ethyl-5H-pyrrolo[2,3-b]pyrazin-6-yl)-phenyl]-propan-2-ol]
- % Inhibition at max. conc. (10 uM) [1]: 0%
- % Inhibition at max. conc. (10 uM) ([2]; 10 uM): 75%
- IC50 ([2]; Homo sapiens, MTS assay): 4.5 µM
- % Inhibition at max. conc. (10 uM) ([3]; 10 uM): 67%
- IC50 ([3]; Homo sapiens, MTS assay): 3.4 µM
- % Inhibition at max. conc. (10 uM) [4]: 35%
- % Inhibition at max. conc. (10 uM) [5]: 60% and 59%
- IC50 ([6]; Homo sapiens, MTS assay): 3.1 µM
- % Inhibition at max. conc. (10 uM) ([6]; 10 uM): 97%
- IC50 ([7]; Homo sapiens, Jurkat): 6.8 µM
- % Inhibition at max. conc. (10 uM) ([7]; 10 uM): 43%
- IC50 ([7]; listed as A003397769): > 10 µM
- % Inhibition at max. conc. (10 uM) [8]: 28%
- % Inhibition at max. conc. (10 uM) [9]: 21%
- IC50 ([10]; Homo sapiens, MTS assay): 1.9 µM
- % Inhibition at max. conc. (10 uM) ([10]; 10 uM): 91%
- IC50 ([11]; Homo sapiens, MTS assay): 5.5 µM
- % Inhibition at max. conc. (10 uM) ([11]; 10 uM): 61%
- IC50 ([12]; Homo sapiens, MTS assay): > 10 µM
- % Inhibition at max. conc. (10 uM) ([12]; 10 uM): 28%
- IC50 ([13]; Homo sapiens, MTS assay): 5.5 µM
- % Inhibition at max. conc. (10 uM) ([13]; 10 uM): 84%
- IC50 ([14]; Homo sapiens, RPMI-8226, MTS assay): > 10 µM
- % Inhibition at max. conc. (10 uM) ([14]; 10 uM): 36%
- ankle swelling/inflammation ([15]; 3.0 mg/kg p.o. b.i.d. day 6-21, on day 12 only): significantly reduced ankle swelling/inflammation
- ankle swelling/inflammation ([15]; 10 mg/kg p.o. b.i.d. day 6-21, on days 12 through 19): significantly reduced ankle swelling/inflammation
- ankle swelling/inflammation ([15]; 30 mg/kg p.o. b.i.d. day 6-21, from day 12 through day 21): significantly reduced ankle swelling/inflammation
- bone erosion (ratio of bone surface to bone volume), MicroCT ([15]; 3, 10 or 30 mg/kg b.i.d.): significant reductions in bone erosion

— patent publication US8658649B2, “Kinase inhibitor” (Sanofi, priority 2006, dated 2014)
